Test [1] concerns MCF7. As to the kind of experiment: Growth promoting activity in human MCF7 cells at >10 nM after 7 days by colorimetric methylene blue assay in presence of Toremifene. Type of test: functional, cell-based.
For test [2], the system named is MCF7. The test can be described thus: Growth promoting activity in human MCF7 cells after 7 days by colorimetric methylene blue assay in presence of Toremifene. Type of test: functional, cell-based.

Here are results for two molecules from ChEMBL document CHEMBL1155670, “Identification of deoxymiroestrol as the actual rejuvenating principle of "Kwao Keur", Pueraria mirifica. The known miroestrol may be an artifact” (J Nat Prod, 2000).

Activity calls are given as the source filed them. The calls are words filed in the database; no cut-off is given here.

For the molecule `CC1(C)[C@@H]2C[C@]3(O)CC(=O)[C@@H](C4=COc5cc(O)ccc5[C@H]41)[C@@H]2[C@H]3O`, the result with MCF7 [1] and in the test on MCF7 [2] was Active.

Regarding `CC1(C)[C@@H]2C[C@]3(O)CC(=O)[C@@](O)(C4=COc5cc(O)ccc5[C@H]41)[C@@H]2[C@H]3O`, the result in the test with MCF7 [1] and with MCF7 [2] was Active.
